Assay: mn = molality of the nth substance listed, in mol/kg
Conditions: 101 kPa, Liquid, Alternating current cell with electrodes

[Cl][Fe][Cl] [ferrous chloride] + O
electrical conductivity [S/m]
Conditions | 278.1 K | 283.1 K | 298.15 K | 308.15 K | 318.15 K | 343.15 K | 363.15 K
m1 = 9e-05 | 0.3365 | 0.3724 | 0.4835 | 0.5486 | 0.6142 | 0.7702 | 0.8954
m1 = 0.000726 | 0.3437 | 0.3802 | 0.494 | 0.5646 | 0.635 | 0.8025 | 0.9282
m1 = 0.00908 | 0.4397 | 0.4997 | 0.6568 | 0.7661 | 0.8715 | 1.148 | 1.354
m1 = 0.1169 | 1.6 | 1.807 | 2.494 | 3.003 | 3.516 | 4.889 | 5.966

O=[N+]([O-])[O-].O=[N+]([O-])[O-].[Mn+2] [manganese nitrate] + O
electrical conductivity [S/m]
Conditions | 278.1 K | 283.1 K | 298.15 K | 308.15 K | 318.15 K | 343.15 K | 363.15 K
m1 = 0.000917 | 0.05151 | 0.05774 | 0.07688 | 0.08959 | 0.1015 | 0.1307 | 0.155
m1 = 0.01047 | 0.1786 | 0.2033 | 0.282 | 0.3382 | 0.3934 | 0.538 | 0.6651
m1 = 0.086 | 1.04 | 1.179 | 1.63 | 1.958 | 2.295 | 3.125 | 3.692
m1 = 0.8521 | 7.064 | 7.973 | 10.69 | 12.54 | 14.41 | 19.41 | –

Cl.N [ammonium chloride (NH4Cl)] + O
electrical conductivity [S/m]
Conditions | 278.15 K | 283.15 K | 298.15 K | 308.15 K | 318.15 K | 343.15 K | 363.15 K
m1 = 0.000977 | 0.008892 | 0.01017 | 0.01441 | 0.01738 | 0.02024 | 0.0287 | 0.03591
m1 = 0.00965 | 0.0856 | 0.09786 | 0.1381 | 0.1671 | 0.1938 | 0.2731 | 0.3363
m1 = 0.09765 | 0.7999 | 0.9148 | 1.276 | 1.545 | 1.801 | 2.535 | 3.142
m1 = 0.4735 | 3.542 | 4.027 | 5.525 | 6.577 | 7.691 | 10.75 | 13.26
m1 = 1.034 | 7.301 | 8.293 | 11.12 | 13.13 | 15.36 | 21.55 | 25.35

O=S(=O)([O-])[O-].[Ca+2] [calcium sulfate] + O
electrical conductivity [S/m]
Conditions | 278.15 K | 283.15 K | 298.15 K | 308.15 K | 318.15 K | 343.15 K | 363.15 K
m1 = 7.6e-05 | 0.00123 | 0.001409 | 0.001963 | 0.002529 | 0.003011 | 0.004223 | 0.00536
m1 = 0.00102 | 0.01397 | 0.01601 | 0.02275 | 0.02808 | 0.0325 | 0.04537 | 0.05546
m1 = 0.01245 | 0.1154 | 0.1331 | 0.185 | 0.2255 | 0.2573 | 0.3419 | 0.3973
